Measurements taken from patent US7888385B2, “Airway alkalinization as therapy for airway diseases” (priority 2002, dated 2011).
Where a name gives a salt, the structure may show the parent alone.

What was measured:
[1] = existing formulations; cited from earlier work
[2] = Practical applications: asthma patient cases; type: in vivo, human
Source text: (§1) Practical Applications of the Present Invention

[3] = tested on: airway epithelial glutaminase; test: Ammonium accumulation by small airway epithelial cells (SAEC) in 3 mM glutamine; type: cell-based, human
Protocol: (SAEC: Clonetics) grown to confluence in six well plates with 3 mM glutamine were incubated with S-Nitrosoglutathione (GSNO; 200 μm) in the presence or absence of cysteinyl glycine (CG; 100 μM). Ammonium accumulation over time was compared with control cells. S-Nitrosoglutathione require conversion to S-Nitrosocysteinyl glycine (CGSNO) (whether through simple transnitrosation reactions in the presence of CG or through cleavage by γ glutamyl transpeptidase) to be fully active at intracellular sites, such as mitochondrial glutaminase, in some system. However, conversion of GSNO to CGSNO dramatically shortens the chemical and biological half-life of the SNO moiety. […] Accumulation of NH4^+ in medium alone was at the threshold of detection.

[4] = tested on: mycobacteria; conditions: human, in vivo, pH 3
Source text: as §1

[5] = cited from earlier work
[6] = tested on: glutaminase; test: Glutaminase activity in cultured lung epithelial cells; type: cell-based; conditions: 100 u/ml, at 24 and 48 hours, p<0.01, n=3 each
Source text: An indirect effect of HRV infection involving inflammatory and/or neuronal mediators is also possible. In particular, IFN γ is a likely candidate to mediate glutaminase inhibition because 1) Th1 cytokines inhibit glutaminase activity in lower airway epithelial cells 2) IFN γ inhibits glutaminase in other cell systems; and 3) IFN γ production following HRV infection in the setting of Th2-lymphocyte associated chronic inflammation may contribute to asthmatic airway narrowing. Applicants have shown that 100 u/ml interferon gamma inhibits glutaminase activity in cultured lung epithelial cells in excess of 65% at 24 and 48 hours (p<0.01, n=3 each). Though circulating T cells could produce IFN γ during rhinovirus infections, it seems more likely that it would be secreted in the airway itself as a result of local recruitment and activation of Th1 and/or CD8 cells.
In accordance with one embodiment, a method of treating asthma comprises nebulizing or treating systemically with a compound that facilitates breakdown of S-Nitrosothiols, such as CuCl, Cu/Zn SOD, glutathione peroxidase, glutathione-dependent formaldehyde dehydrogenase or gamma glutamyl transpeptidase. […]

## CC(C)(C)NCC(O)c1ccc(O)c(CO)c1 (centres unmarked) [Albuterol]
[1]
  pH of existing formulation: 3 to 5
[2]; 0.083 mg diluted in normal saline (pH 3.5), child
  asthma symptoms: symptoms do not improve
[2]; same dose diluted in 10 mM phosphate buffered saline, pH 8
  asthma symptoms: symptoms resolve

## N[C@@H](CS)C(=O)NCC(=O)O [CG, cysteinyl glycine]
[3]; cysteinyl glycine 100 μM added to GSNO 200 μm, after 48 hours
  effect on GSNO inhibition of NH4+ accumulation after 48 hours: eliminated the GSNO effect

## [Cl][Cu] [CuCl]
[2]; 10 μM in 10 mM phosphate buffered saline, pH 8, three times/day
  asthma symptoms: asthma symptoms resolve

## N[C@@H](CCC(=O)N[C@@H](CSN=O)C(=O)NCC(=O)O)C(=O)O [GSNO, S-Nitrosoglutathione]
[3]; GSNO 200 μm in the presence of cysteinyl glycine 100 μM, 24 hours
  NH4+ accumulation at 24 hours: no NH4^+ at all accumulated
[3]; GSNO 200 μm, SAEC, p<0.01 by ANOVA
  NH4+ accumulation over time vs control cells: inhibited NH4^+ accumulation at each time point

## CC(C)(C)NC[C@H](O)c1ccc(O)c(CO)c1 [Levalbuterol HCl]
[1]
  pH of existing formulation: 3.3-4.5
[2]; levalbuterol and budesonide together, 0.5 mg by nebulizer four times/day
  asthma symptoms: without relief of their symptoms

## CC(=O)O [acetic acid]
[4]
  tuberculosis symptoms: symptoms resolve

## O=C(O)CN(CCO)CCO [bicine, N,N-Bis(2-hydroxyethyl)glycine]
[5]
  pKa: 8.46

## OC(Cn1cncn1)(Cn1cncn1)c1ccc(F)cc1F [fluconazole]
[2]; 7 day course, 200 mg/day, chronic yeast infection in mouth
  asthma symptoms: asthma symptoms improve

## NC(=O)CC[C@H](N)C(=O)O [glutamine]
[2]; 1 gm by mouth three times a day
  asthma symptoms: does not develop any asthma symptoms
[2]; 1 gm by nebulizer (pH 8) twice a day at onset of upper respiratory symptoms
  asthma exacerbation: does not develop an asthma exacerbation

## NCC(=O)O [glycine, aminoacetic acid]
[2]; 1 mM glycine in 10 mM CAPS (pH 7.6) by nebulizer immediately before levalbuterol and budesonide
  asthma symptoms: becomes asymptomatic

## O=C(O)CNC(CO)(CO)CO [tricene, N-[tris(hydroxymethyl)methyl] glycine]
[5]
  pKa: 8.26

## interferon gamma: Th1-derived cytokine that inhibits glutaminase
[6]
  inhibition of glutaminase activity: > 65%
